How the values were obtained:
[1] = test system: recombinant human CFTR carrying the premature stop codon (PTC) mutation R1162X; experiment: CFTR-PTC mutant translation readthrough, Nanoluc tagged CFTR luminescence (R1162X cell line); format: cell-based; conditions: for CFTR R1162X ACTIVITY Fold 10 μM G-418: fold over 10 μM G-418, in combination with G418; for EC50: in combination with G418, 16HBE cells, read-out: CFTR R1162X ACTIVITY EC50
Summary of the method: (§1)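 16HBE cells stably expressing Nanoluc-tagged human CFTR with G542X or R1162X, in medium with 3 μM VX-809, treated 48 h at 37 °C with compound (10-point, 2-fold, top 50 μM final) alone or with 10 μM G418. Live-cell Nanoluc luminescence normalised to a maximally effective G418 (125-250 μM).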

[2] = test system: recombinant human CFTR carrying the premature stop codon (PTC) mutation G542X; experiment: CFTR-PTC mutant translation readthrough, Nanoluc tagged CFTR luminescence (G542X cell line); format: cell-based; conditions: in combination with G418, G542X cell line; for CFTR G542X ACTIVITY Fold 10 μM G-418: fold over 10 μM G-418; for EC50: 16HBE cells
Summary of the method: as §1

| Structure (SMILES) | CFTR R1162X ACTIVITY Fold 10 μM G-418 [1] | EC50 [1] [nM] | CFTR G542X ACTIVITY Fold 10 μM G-418 [2] | EC50 [2] [nM] |
| --- | --- | --- | --- | --- |
| C[C@H]1CO[C@H](CO)CN1c1ncc(OCc2c(Cl)cccc2Cl)cn1 (racemic) | A′ (A′ = ≥10X) | 1000 to 10000 | A′ (A′ = ≥10X) | 1000 to 10000 |
| COc1cccc(Cl)c1COc1ccc(N2CC(CO)OC2=O)cc1 (stereo not shown) | C′ (C′ = <5X) | > 10000 | C′ (C′ = <5X) | > 10000 |
| Cc1cccc(C(F)(F)F)c1COc1cnc(-n2nnc3ccccc32)nc1 [1-[5-[[2-methyl-6-(trifluoromethyl)phenyl]methoxy]pyrimidin-2-yl]benzotriazole] | A′ (A′ = ≥10X) | < 1000 | A′ (A′ = ≥10X) | < 1000 |
| O=C1N[C@@H](CO)CN1c1ncc(OCc2c(Cl)cccc2C(F)(F)F)cn1 [(4R)-1-(5-{[2-chloro-6-(trifluoromethyl)phenyl]methoxy}pyrimidin-2-yl)-4-(hydroxymethyl)imidazolidin-2-one] | C′ (C′ = <5X) | 1000 to 10000 | C′ (C′ = <5X) | 1000 to 10000 |
| CN(CCCO)c1ncc(OCc2c(Cl)cccc2Cl)cn1 [3-[[5-[(2,6-dichlorophenyl)methoxy]pyrimidin-2-yl]-methyl-amino]propan-1-ol] | B′ (B′ = ≥5X to <10X) | > 10000 | B′ (B′ = ≥5X to <10X) | 1000 to 10000 |
| Clc1cccc(Cl)c1COc1cnc(N2CCOCC2)nc1 [4-[5-[(2,6-dichlorophenyl)methoxy]pyrimidin-2-yl]morpholine] | A′ (A′ = ≥10X) | 1000 to 10000 | A′ (A′ = ≥10X) | 1000 to 10000 |
| O=C1CN(Cc2ccccc2)C(=O)N1c1ncc(OCc2ccccc2)cn1 [1-benzyl-3-(5-benzyloxypyrimidin-2-yl)imidazolidine-2,4-dione] | A′ (A′ = ≥10X) | 1000 to 10000 | A′ (A′ = ≥10X) | < 1000 |
| O=C1OC(CO)CN1c1ccc(OCc2c(Cl)cccc2C(F)(F)F)cn1 (stereo not shown) | A′ (A′ = ≥10X) | 1000 to 10000 | A′ (A′ = ≥10X) | < 1000 |
| CC1CC(CO)CN1c1ncc(OCc2c(Cl)cccc2Cl)cn1 (stereo not shown) | A′ (A′ = ≥10X) | 1000 to 10000 | A′ (A′ = ≥10X) | 1000 to 10000 |
| NC(=O)c1ncn(-c2ncc(OCc3c(Cl)cccc3Cl)cn2)n1 [1-[5-[(2,6-dichlorophenyl)methoxy]pyrimidin-2-yl]-1,2,4-triazole-3-carboxamide] | – | > 10000 | C′ (C′ = <5X) | 1000 to 10000 |
| Cc1cccc(C)c1COc1ccc(N2CC(CO)OC2=O)c2ccccc12 (stereo not shown) [3-[4-[(2,6-dimethylphenyl)methoxy]-1-naphthyl]-5-(hydroxymethyl)oxazolidin-2-one] | C′ (C′ = <5X) | > 10000 | – | > 10000 |
| O=C1NC2(CCCC2)C(=O)N1c1ncc(OCc2c(Cl)cccc2Cl)cn1 | A′ (A′ = ≥10X) | > 10000 | A′ (A′ = ≥10X) | 1000 to 10000 |
| FC(F)(F)c1cccc(Cl)c1COc1cnc(-n2cncn2)nc1 [5-[[2-chloro-6-(trifluoromethyl)phenyl]methoxy]-2-(1,2,4-triazol-1-yl)pyrimidine] | A′ (A′ = ≥10X) | 1000 to 10000 | A′ (A′ = ≥10X) | < 1000 |
| OCC1CN(c2ncc(OCc3c(Cl)cccc3Cl)cn2)CCO1 (stereo not shown) [[4-[5-[(2,6-dichlorophenyl)methoxy]pyrimidin-2-yl]morpholin-2-yl]methanol] | A′ (A′ = ≥10X) | 1000 to 10000 | A′ (A′ = ≥10X) | < 1000 |
| OCc1nnc(-c2ccc(OCc3c(Cl)cccc3Cl)cc2)o1 [[5-[4-[(2,6-dichlorophenyl)methoxy]phenyl]-1,3,4-oxadiazol-2-yl]methanol] | A′ (A′ = ≥10X) | < 1000 | A′ (A′ = ≥10X) | < 1000 |
| O=C(CO)N1CCN(c2ncc(OCc3c(Cl)cccc3Cl)cn2)CC1 | A′ (A′ = ≥10X) | 1000 to 10000 | A′ (A′ = ≥10X) | 1000 to 10000 |
| CC(=O)NCC1CN(c2ncc(OCc3c(Cl)cccc3Cl)cn2)CCO1 (stereo not shown) | A′ (A′ = ≥10X) | 1000 to 10000 | A′ (A′ = ≥10X) | < 1000 |
| OC[C@H]1CN(c2ncc(OCc3c(Cl)cccc3Cl)cn2)CCO1 [[(2R)-4-[5-[(2,6-dichlorophenyl)methoxy]pyrimidin-2-yl]morpholin-2-yl]methanol] | A′ (A′ = ≥10X) | 1000 to 10000 | A′ (A′ = ≥10X) | 1000 to 10000 |
| N#Cc1ccn(-c2ncc(OCc3c(Cl)cccc3Cl)cn2)n1 [1-[5-[(2,6-dichlorophenyl)methoxy]pyrimidin-2-yl]pyrazole-3-carbonitrile] | B′ (B′ = ≥5X to <10X) | < 1000 | A′ (A′ = ≥10X) | 1000 to 10000 |
| O=CNCC1CCCN(c2ncc(OCc3c(Cl)cccc3Cl)cn2)C1 (stereo not shown) | B′ (B′ = ≥5X to <10X) | 1000 to 10000 | B′ (B′ = ≥5X to <10X) | 1000 to 10000 |
| O=C(O)c1ncn(-c2ccc(OCc3c(Cl)cccc3C(F)(F)F)cn2)n1 [1-[5-[[2-chloro-6-(trifluoromethyl)phenyl]methoxy]-2-pyridyl] | – | < 1000 | B′ (B′ = ≥5X to <10X) | 1000 to 10000 |
| OCc1n[nH]c(-c2ccc(OCc3c(Cl)cccc3Cl)cn2)n1 [[5-[5-[(2,6-dichlorophenyl)methoxy]-2-pyridyl]-1H-1,2,4-triazol-3-yl]methanol] | B′ (B′ = ≥5X to <10X) | 1000 to 10000 | B′ (B′ = ≥5X to <10X) | 1000 to 10000 |
| Cc1cccc(C(F)(F)F)c1COc1cnc(N(C)CCCCO)nc1 | A′ (A′ = ≥10X) | < 1000 | A′ (A′ = ≥10X) | < 1000 |
| NC(=O)N1CCN(c2ncc(OCc3c(Cl)cccc3Cl)cn2)CC(O)C1 (stereo not shown) | A′ (A′ = ≥10X) | 1000 to 10000 | A′ (A′ = ≥10X) | 1000 to 10000 |
| Cc1cccc(C(F)(F)F)c1COc1ccc(-n2cc(CO)nn2)nc1 | A′ (A′ = ≥10X) | < 1000 | A′ (A′ = ≥10X) | < 1000 |
| CC(=O)N[C@H](CO)C(=O)Nc1ccc(OCc2c(Cl)cccc2Cl)cn1 | C′ (C′ = <5X) | > 10000 | C′ (C′ = <5X) | > 10000 |
| O=C(O)C1CCN(c2ncc(OCc3c(Cl)cccc3C(F)(F)F)cn2)CC1 [1-[5-[[2-chloro-6-(trifluoromethyl)phenyl]methoxy]pyrimidin-] | A′ (A′ = ≥10X) | 1000 to 10000 | A; | 1000 to 10000 |
| OCc1nc(-c2ccc(OCc3c(Cl)cccc3Cl)cn2)no1 [[3-[5-[(2,6-dichlorophenyl)methoxy]-2-pyridyl]-1,2,4-oxadiazol-5-yl]methanol] | A′ (A′ = ≥10X) | 1000 to 10000 | A′ (A′ = ≥10X) | 1000 to 10000 |
| O=C1OC(CO)CN1c1ncc(CCc2c(Cl)cccc2Cl)cn1 (stereo not shown) | – | > 10000 | – | > 10000 |
| OCc1cn(-c2ccc(OCc3c(Cl)cccc3C(F)(F)F)cc2)nn1 [[1-[4-[[2-chloro-6-(trifluoromethyl)phenyl]methoxy]phenyl]triazol-4-yl]methanol] | A′ (A′ = ≥10X) | 1000 to 10000 | A′ (A′ = ≥10X) | 1000 to 10000 |
